The values below come from ChEMBL document CHEMBL5291721, “A preclinical secondary pharmacology resource illuminates target-adverse drug reaction associations of marketed drugs” (Nat Commun, 2023).

One may read the AC50 as the midpoint of the concentration-response curve, whichever way the signal moves. A low value points to greater potency.

Molecules are shown by their SMILES.

Test [1] has as its target T1, Alpha-1A adrenergic receptor (Homo sapiens, UniProt P35348).
T1 sequence (P35348 whole entry): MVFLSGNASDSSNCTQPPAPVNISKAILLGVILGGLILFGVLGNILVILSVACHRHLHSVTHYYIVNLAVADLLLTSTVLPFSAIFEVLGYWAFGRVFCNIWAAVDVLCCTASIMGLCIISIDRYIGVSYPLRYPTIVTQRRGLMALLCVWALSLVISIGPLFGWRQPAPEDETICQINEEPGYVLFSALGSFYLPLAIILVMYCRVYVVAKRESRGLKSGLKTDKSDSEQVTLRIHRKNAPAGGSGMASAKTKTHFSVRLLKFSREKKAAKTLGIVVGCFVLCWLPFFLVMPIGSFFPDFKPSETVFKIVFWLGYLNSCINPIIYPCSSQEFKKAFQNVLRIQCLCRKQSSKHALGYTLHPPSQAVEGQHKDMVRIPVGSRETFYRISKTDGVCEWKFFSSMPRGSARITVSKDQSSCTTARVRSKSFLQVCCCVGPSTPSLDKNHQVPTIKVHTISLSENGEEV
Format: functional, cell-based.

The target of test [2] is T2, Muscarinic acetylcholine receptor M1 (Homo sapiens, UniProt P11229).
T2 sequence (P11229 whole entry): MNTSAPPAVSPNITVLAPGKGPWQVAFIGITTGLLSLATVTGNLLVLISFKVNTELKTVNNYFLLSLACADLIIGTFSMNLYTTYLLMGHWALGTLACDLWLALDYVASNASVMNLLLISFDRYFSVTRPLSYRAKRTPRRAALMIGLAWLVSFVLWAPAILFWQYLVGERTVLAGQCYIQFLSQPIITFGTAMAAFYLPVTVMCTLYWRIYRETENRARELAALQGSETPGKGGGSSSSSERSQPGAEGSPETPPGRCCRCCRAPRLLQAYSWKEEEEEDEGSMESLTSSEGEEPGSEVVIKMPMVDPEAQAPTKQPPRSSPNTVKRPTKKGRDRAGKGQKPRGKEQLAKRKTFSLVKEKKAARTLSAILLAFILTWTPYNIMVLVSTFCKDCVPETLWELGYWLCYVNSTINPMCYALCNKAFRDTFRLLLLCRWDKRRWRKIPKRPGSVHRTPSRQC
Format: functional.

In a further test the target is Cannabinoid receptor 1 (Homo sapiens, UniProt P21554). Format: functional, cell-based.
Sequence of Cannabinoid receptor 1 (P21554 whole entry): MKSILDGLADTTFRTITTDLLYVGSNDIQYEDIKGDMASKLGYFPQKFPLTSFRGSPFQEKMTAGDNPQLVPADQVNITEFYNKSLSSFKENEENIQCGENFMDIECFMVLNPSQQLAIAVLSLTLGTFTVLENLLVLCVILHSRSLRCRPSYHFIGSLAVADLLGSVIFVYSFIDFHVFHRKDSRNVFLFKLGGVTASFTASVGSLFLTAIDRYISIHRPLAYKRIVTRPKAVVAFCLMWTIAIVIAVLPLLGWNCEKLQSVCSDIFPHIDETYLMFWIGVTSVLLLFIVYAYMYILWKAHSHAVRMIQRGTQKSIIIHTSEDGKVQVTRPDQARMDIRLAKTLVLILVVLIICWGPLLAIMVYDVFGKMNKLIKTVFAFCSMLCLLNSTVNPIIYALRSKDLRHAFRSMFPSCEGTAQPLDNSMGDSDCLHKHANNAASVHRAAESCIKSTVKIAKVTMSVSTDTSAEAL
Another test concerns the target Vasopressin V1a receptor (Homo sapiens, UniProt P37288).
For test [3], the target named is 5-hydroxytryptamine receptor 2A (Homo sapiens, UniProt P28223). Format: functional, cell-based.
Sequence of 5-hydroxytryptamine receptor 2A (P28223 whole entry): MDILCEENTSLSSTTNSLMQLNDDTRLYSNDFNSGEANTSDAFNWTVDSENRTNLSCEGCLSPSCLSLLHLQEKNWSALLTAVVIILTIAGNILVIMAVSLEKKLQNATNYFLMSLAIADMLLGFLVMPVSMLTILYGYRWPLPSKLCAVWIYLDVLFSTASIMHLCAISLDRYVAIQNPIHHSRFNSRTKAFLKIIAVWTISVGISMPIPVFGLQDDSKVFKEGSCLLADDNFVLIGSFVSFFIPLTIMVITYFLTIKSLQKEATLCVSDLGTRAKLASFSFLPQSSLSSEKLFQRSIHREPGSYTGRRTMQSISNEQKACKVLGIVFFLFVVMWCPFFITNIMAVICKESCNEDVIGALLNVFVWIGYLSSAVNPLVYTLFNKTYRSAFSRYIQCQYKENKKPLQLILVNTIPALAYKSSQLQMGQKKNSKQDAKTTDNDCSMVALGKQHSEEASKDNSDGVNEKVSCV
For test [4], the target named is T3, Gastrin/cholecystokinin type B receptor (Homo sapiens, UniProt P32239).
T3 sequence (P32239 whole entry): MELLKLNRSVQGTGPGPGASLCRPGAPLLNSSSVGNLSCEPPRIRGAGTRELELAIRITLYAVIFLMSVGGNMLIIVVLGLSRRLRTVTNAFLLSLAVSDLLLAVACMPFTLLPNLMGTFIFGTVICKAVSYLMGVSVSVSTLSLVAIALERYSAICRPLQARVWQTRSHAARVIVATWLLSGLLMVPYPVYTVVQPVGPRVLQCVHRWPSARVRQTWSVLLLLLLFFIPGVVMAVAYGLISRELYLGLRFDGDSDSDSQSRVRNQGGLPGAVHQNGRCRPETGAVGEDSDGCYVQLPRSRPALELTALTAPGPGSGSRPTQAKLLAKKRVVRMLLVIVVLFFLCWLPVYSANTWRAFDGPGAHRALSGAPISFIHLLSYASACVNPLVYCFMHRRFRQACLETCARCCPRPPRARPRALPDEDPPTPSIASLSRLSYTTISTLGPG

Test [5] deals with T4, Amine oxidase [flavin-containing] A (Homo sapiens, UniProt P21397).
T4 sequence (P21397 whole entry): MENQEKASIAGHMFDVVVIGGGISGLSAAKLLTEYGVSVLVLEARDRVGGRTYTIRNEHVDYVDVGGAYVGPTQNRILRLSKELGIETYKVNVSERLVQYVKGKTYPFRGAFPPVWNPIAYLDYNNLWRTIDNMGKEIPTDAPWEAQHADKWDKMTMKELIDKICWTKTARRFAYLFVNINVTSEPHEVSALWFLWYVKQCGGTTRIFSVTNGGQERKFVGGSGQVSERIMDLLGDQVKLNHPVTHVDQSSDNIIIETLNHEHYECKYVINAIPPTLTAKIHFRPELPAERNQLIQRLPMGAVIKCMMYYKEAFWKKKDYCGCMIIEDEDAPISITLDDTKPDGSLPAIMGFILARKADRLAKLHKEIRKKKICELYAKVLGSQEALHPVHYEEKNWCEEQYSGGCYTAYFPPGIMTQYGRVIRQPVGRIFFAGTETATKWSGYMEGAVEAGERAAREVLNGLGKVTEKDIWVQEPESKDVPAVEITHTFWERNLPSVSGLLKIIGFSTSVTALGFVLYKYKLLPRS
Format: functional.

For another test, the target named is T5, Thromboxane A2 receptor (Homo sapiens, UniProt P21731).
T5 sequence (P21731 whole entry): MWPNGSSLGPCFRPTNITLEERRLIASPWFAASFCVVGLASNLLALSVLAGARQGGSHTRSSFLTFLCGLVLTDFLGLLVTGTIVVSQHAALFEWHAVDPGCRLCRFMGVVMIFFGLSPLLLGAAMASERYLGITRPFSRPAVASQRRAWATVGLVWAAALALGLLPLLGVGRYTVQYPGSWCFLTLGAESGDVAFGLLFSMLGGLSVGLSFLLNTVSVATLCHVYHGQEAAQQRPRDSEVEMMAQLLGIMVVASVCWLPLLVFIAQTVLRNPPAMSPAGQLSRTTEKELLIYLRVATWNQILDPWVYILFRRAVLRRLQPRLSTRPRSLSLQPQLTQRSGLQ
Format: functional, cell-based.

Test [6] has as its target 3',5'-cyclic-AMP phosphodiesterase 4A (Homo sapiens, UniProt P27815). Format: functional.
Test [7] has as its target Sodium-dependent dopamine transporter (Homo sapiens, UniProt Q01959).
A further test addresses Mu-type opioid receptor (Homo sapiens, UniProt P35372).
The target in test [8] is Gamma-aminobutyric acid receptor subunit alpha-1 (Rattus norvegicus, UniProt P62813).
Sequence of Gamma-aminobutyric acid receptor subunit alpha-1 (P62813 whole entry): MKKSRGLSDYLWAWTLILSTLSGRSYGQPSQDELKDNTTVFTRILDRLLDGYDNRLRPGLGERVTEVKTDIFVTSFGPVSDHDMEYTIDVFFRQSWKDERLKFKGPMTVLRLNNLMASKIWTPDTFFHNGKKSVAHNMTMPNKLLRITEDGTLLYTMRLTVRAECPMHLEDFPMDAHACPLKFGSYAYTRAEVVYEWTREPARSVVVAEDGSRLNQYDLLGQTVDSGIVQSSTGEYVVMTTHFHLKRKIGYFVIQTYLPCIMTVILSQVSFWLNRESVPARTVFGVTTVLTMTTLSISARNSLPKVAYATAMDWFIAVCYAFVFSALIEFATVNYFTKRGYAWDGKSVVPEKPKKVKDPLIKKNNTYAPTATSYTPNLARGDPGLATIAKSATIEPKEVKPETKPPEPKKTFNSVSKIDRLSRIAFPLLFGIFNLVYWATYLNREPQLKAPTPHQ
Also: assay procedure not described here.

Sequence of 3',5'-cyclic-AMP phosphodiesterase 4A (P27815 whole entry): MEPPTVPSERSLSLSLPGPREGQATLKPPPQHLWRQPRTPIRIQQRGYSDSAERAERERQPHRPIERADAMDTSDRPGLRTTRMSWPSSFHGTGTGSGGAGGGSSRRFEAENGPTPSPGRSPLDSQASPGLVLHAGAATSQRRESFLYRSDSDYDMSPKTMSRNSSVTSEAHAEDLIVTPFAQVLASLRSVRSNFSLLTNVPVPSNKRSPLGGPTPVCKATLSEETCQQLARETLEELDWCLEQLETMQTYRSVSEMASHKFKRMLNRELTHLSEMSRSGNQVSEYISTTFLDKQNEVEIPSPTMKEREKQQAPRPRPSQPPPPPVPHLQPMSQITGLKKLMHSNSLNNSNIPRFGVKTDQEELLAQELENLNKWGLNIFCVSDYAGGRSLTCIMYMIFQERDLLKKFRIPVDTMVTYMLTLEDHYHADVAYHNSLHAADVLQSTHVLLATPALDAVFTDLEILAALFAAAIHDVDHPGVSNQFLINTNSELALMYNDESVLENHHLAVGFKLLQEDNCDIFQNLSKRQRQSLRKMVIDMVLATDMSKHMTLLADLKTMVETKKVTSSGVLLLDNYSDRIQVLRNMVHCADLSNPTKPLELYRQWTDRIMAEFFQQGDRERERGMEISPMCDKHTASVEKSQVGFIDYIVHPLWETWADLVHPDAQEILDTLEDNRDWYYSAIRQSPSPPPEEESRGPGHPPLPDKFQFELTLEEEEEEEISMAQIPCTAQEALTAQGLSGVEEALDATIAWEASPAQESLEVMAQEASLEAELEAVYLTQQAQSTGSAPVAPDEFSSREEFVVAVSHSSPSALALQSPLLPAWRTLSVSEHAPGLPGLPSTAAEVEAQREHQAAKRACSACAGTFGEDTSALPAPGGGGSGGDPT
Sequence of Sodium-dependent dopamine transporter (Q01959 whole entry): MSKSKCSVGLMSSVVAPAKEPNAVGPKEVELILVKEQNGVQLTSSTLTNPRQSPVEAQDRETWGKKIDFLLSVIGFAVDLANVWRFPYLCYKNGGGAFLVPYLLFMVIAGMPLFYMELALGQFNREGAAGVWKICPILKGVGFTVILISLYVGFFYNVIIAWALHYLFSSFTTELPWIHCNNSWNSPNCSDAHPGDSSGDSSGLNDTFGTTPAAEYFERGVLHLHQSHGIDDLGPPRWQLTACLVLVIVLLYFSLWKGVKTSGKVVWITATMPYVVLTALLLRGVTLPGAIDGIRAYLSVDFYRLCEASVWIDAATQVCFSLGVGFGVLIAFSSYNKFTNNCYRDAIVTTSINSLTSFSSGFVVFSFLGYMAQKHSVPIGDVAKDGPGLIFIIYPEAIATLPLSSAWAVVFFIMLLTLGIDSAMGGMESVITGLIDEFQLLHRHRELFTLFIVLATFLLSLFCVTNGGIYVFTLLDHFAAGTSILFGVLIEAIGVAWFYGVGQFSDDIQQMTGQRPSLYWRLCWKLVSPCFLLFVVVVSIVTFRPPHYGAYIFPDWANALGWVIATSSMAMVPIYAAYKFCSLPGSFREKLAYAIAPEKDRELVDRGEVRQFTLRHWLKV
Sequence of Mu-type opioid receptor (P35372 whole entry): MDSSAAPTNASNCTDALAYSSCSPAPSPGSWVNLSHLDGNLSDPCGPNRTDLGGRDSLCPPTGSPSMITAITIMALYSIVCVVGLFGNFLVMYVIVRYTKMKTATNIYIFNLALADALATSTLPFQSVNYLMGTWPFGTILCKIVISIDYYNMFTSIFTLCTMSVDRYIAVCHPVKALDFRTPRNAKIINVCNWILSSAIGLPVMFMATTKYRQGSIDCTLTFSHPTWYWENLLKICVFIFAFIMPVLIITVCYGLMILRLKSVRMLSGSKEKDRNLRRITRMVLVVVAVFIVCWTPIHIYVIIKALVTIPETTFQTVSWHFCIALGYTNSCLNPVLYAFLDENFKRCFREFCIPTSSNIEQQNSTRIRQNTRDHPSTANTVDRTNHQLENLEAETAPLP
Sequence of Vasopressin V1a receptor (P37288 whole entry): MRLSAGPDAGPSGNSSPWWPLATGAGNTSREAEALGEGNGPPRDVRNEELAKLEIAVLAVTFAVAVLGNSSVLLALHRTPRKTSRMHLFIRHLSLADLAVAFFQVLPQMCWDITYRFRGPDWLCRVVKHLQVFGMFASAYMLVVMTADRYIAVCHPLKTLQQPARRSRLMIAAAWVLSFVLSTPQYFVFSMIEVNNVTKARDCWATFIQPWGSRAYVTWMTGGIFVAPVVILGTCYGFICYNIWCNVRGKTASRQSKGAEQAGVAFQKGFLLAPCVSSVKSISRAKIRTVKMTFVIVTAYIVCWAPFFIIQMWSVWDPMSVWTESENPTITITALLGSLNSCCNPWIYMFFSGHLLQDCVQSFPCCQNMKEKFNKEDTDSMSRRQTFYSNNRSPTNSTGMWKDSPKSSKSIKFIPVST

Turning to `CC(=O)c1ccc2c(c1)N(CCCN1CCN(CCO)CC1)c1ccccc1S2` [ACETOPHENAZINE], the AC50 (in test [1]; in test [2]; at Cannabinoid receptor 1; at Vasopressin V1a receptor; in test [3]) was > 30 µM each time.
Regarding `CN1CCCC(n2nc(Cc3ccc(Cl)cc3)c3ccccc3c2=O)CC1` (stereo not drawn) [AZELASTINE], the AC50 (in [1]; at Cannabinoid receptor 1; at Vasopressin V1a receptor; in test [3]) was > 30 µM each time.
Regarding `N[C@@H](C(=O)N[C@@H]1C(=O)N2C(C(=O)O)=C(Cl)CS[C@H]12)c1ccccc1` [CEFACLOR ANHYDROUS], the AC50 (in [1]; in test [2]; in [4]; at Cannabinoid receptor 1; at Vasopressin V1a receptor; in [3]) was > 30 µM throughout.
For `CC(C)Cc1ccc(CC(=O)O)cc1` [IBUFENAC], the AC50 (in [1]; in test [2]; on Cannabinoid receptor 1; on Vasopressin V1a receptor; in [3]) was > 30 µM each time.
With `OC[C@@H](O)[C@@H](O)[C@H](O)[C@H](O)CO` [MANNITOL], the AC50 (in [5]; at Thromboxane A2 receptor; in [6]; in test [7]; on Mu-type opioid receptor) was > 30 µM each time.
Turning to `CN1CCCC(CN2c3ccccc3Sc3ccccc32)C1` (stereo not drawn) [MEPAZINE], the AC50 was > 30 µM in test [5]; > 10 µM on Thromboxane A2 receptor; > 30 µM in [6]; 27.7 µM in test [7]; 6.07 µM on Mu-type opioid receptor.
Consider `Sc1ncnc2nc[nH]c12` [MERCAPTOPURINE ANHYDROUS], for which the AC50 (in test [5]; at Thromboxane A2 receptor; in [6]; in test [7]; at Mu-type opioid receptor) was > 30 µM in each case.
With `C[N+]1(C)[C@@H]2C[C@@H](OC(=O)[C@H](CO)c3ccccc3)C[C@H]1[C@@H]1O[C@@H]12` [METHSCOPOLAMINE], the AC50 (in [5]; at Thromboxane A2 receptor; in test [6]; in test [7]; at Mu-type opioid receptor) was > 30 µM in each case.
As to `CC(=O)Oc1c(C)cc(OCC(O)CNC(C)C)c(C)c1C` (stereo not drawn) [METIPRANOLOL], the AC50 (in test [5]; at Thromboxane A2 receptor; in test [6]; in test [7]; on Mu-type opioid receptor) was > 30 µM throughout.
Regarding `CC(N/C(=N\C#N)Nc1ccncc1)C(C)(C)C` (stereo not drawn) [PINACIDIL ANHYDROUS], the half-maximal activity concentration (AC50) (in test [5]; at Thromboxane A2 receptor; in [6]; in [7]; on Mu-type opioid receptor) was > 30 µM throughout.
For `CCc1ccc(CCOc2ccc(CC3SC(=O)NC3=O)cc2)nc1` (stereo not drawn) [PIOGLITAZONE], the AC50 was > 30 µM in [5]; 9.68 µM on Thromboxane A2 receptor; > 30 µM in [4]; > 10 µM in [6]; > 30 µM on Vasopressin V1a receptor; > 30 µM in test [7]. Moreover, the half-maximal activity concentration (AC50) in test [8] is > 10 µM; on Mu-type opioid receptor, > 30 µM.
With `CC(O)CO` (stereo not drawn) [PROPYLENE GLYCOL], the AC50 (in test [5]; on Thromboxane A2 receptor; in test [6]; in test [7]; on Mu-type opioid receptor) was > 30 µM in each case.
With `CN(C)C(=O)Oc1ccc[n+](C)c1` [PYRIDOSTIGMINE], the AC50 (in [5]; on Thromboxane A2 receptor; in [6]; in [7]; at Mu-type opioid receptor) was > 30 µM in each case.
For `Cc1cc2c(cc1CC(=O)c1sccc1S(=O)(=O)Nc1onc(C)c1Cl)OCO2` [SITAXENTAN], the AC50 was > 30 µM in [5]; > 10 µM on Thromboxane A2 receptor; 25 µM in test [6]; > 30 µM in test [7]; > 30 µM at Mu-type opioid receptor.
As for `CC(C)OC(=O)[C@H](C)N[P@](=O)(OC[C@H]1O[C@@H](n2ccc(=O)[nH]c2=O)[C@](C)(F)[C@@H]1O)Oc1ccccc1` [SOFOSBUVIR], the AC50 (in [5]; on Thromboxane A2 receptor; in test [6]; in test [7]; at Mu-type opioid receptor) was > 30 µM in each case.
As to `CS(=O)(=O)c1ccc([C@@H](O)[C@@H](CO)NC(=O)C(Cl)Cl)cc1` [THIAMPHENICOL], the AC50 (in [1]; in [5]; on Thromboxane A2 receptor; in [4]; in test [6]; on Cannabinoid receptor 1) was > 30 µM each time. Moreover, the AC50 (on Vasopressin V1a receptor; in test [7]; in test [8]; at Mu-type opioid receptor) was > 30 µM in each case.
In the case of `Cc1ccc(O)c2ncccc12` [TILIQUINOL], the concentration at half-maximal activity (AC50) (in test [5]; on Thromboxane A2 receptor; in test [6]; in test [7]; at Mu-type opioid receptor) was > 30 µM throughout.
As for `CC(=O)OC[C@H]1O[C@@H](n2ccc(=O)[nH]c2=O)[C@H](OC(C)=O)[C@@H]1OC(C)=O` [URIDINE TRIACETATE], the AC50 (in test [5]; at Thromboxane A2 receptor; in test [6]; in test [7]; on Mu-type opioid receptor) was > 30 µM throughout.
With `OCc1cc([C@@H](O)CNCCCCCCOCCOCc2c(Cl)cccc2Cl)ccc1O` [VILANTEROL], the AC50 in [1] was 1.1 µM; in test [2], > 30 µM; on Cannabinoid receptor 1 it was > 30 µM; on Vasopressin V1a receptor it was > 30 µM; in test [3] it was > 30 µM.
Consider `CCOC(=O)N[C@@H]1CC[C@@H]2[C@@H](C1)C[C@H]1C(=O)O[C@H](C)[C@H]1[C@H]2/C=C/c1ccc(-c2cccc(F)c2)cn1` [VORAPAXAR], for which the half-maximal activity concentration (AC50) in [5] was > 30 µM; on Thromboxane A2 receptor it was > 10 µM; in test [6] it was > 30 µM; in test [7], > 30 µM; on Mu-type opioid receptor, 0.82 µM.
